These results are taken from EP0178388A1, “Quinolinecarboxylic acid derivatives” (KYORIN PHARMACEUTICAL CO., LTD., priority 1984, dated 1986).

The structures appear in SMILES notation. ≈ marks a conversion by molar mass, not a printed value.

The test system of experiment [1] is Serratia marcescens IID 618. The experiment in a line: In vitro antibacterial activity, MIC (standard strain). The experiment is classed as cell-based. The conditions noted are these: Serratia marcescens IID 618, 10^6 cells/ml.
The test system of experiment [2] is S. pneumoniae S-4288. The experiment in a line: In vivo antibacterial activity against systemic infection in mice. Also noted: species or system mice (ICR-S). The conditions noted are these: Streptococcus pneumoniae, S4288; S. pneumoniae S-4288, mice (ICR-S), intraperitoneal infection, oral at 1 hour after infection, challenge dose 2.5 x 10^3 cfu/mouse; read-out: ED50. The procedure: Experiment 2 In vivo antibacterial activity against systemic infection in mice (ICR-S)
The infections were produced by intraperitoneal infection of a suspension of the bacterial culture corresponding to the germ studied. The product was administered orally at 1 hour after the infection. The 50% effective dose (ED50) which protects 50% of the animals from death caused by the infection was determined from the relation between dosage and survival rate.

Experiment [3] deals with S. pneumoniae S-4288. The experiment can be described thus: MIC against the infecting strain (Table 2). The experiment is classed as cell-based. The conditions noted are these: Streptococcus pneumoniae, S4288; S. pneumoniae S-4288 (Table 2, part 4).
Another experiment deals with P. aeruginosa IFO 12689. The experiment in a line: In vitro antibacterial activity, MIC (standard strain). The experiment is classed as cell-based. The conditions noted are these: P. aeruginosa IFO 12689, 10^6 cells/ml, standard strain; listed as Exp.7.
Experiment [4] deals with Staphylococcus aureus 209 P. Described as above. The experiment is classed as cell-based. The conditions noted are these: 10^6 cells/ml.
The subject of another experiment is K. pneumoniae KY(GN)6445. Described as above. The conditions noted are these: K. pneumoniae KY(GN)6445, 10^6 cells/ml, standard strain. The experiment is classed as cell-based.

On to `CC1CN(c2c(F)cc3c(=O)c(C(=O)O)cn(C4CC4)c3c2Cl)CCN1` (stereo not drawn) [Example 7, 8-Chloro-l-cyclopropyl-6-fluoro-l,4-dihydro-7-(3-methyl-l-piperazinyl)-4-oxoquinoline-3-carboxylic acid], for which the MIC in experiment [1] was 0.05 µg/mL (≈ 0.132 µM); in the experiment with S. pneumoniae S-4288 [3], 0.78 µg/mL (≈ 2.05 µM); against P. aeruginosa IFO 12689, 0.78 µg/mL (≈ 2.05 µM); in experiment [4], 0.10 µg/mL (≈ 0.263 µM); in the experiment with K. pneumoniae KY(GN)6445, 0.025 µg/mL (≈ 0.0658 µM). Also, the ED50 with S. pneumoniae S-4288 [2] was found to be 15.6 mg/kg.
